Test results from PubChem BioAssay AID1919010 (Molecular Pharmacology Branch, DTP, NCI, 2023).
Where “and” joins values, the source holds several entries; their conditions need not be identical. Equal values may be shown once.

Test system: Hs578T complex spheroid growth, percent test/control
Test: Anticancer human tumor Hs578T cell line growth inhibition [AhR];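 also: luminescent viability signal as a proxy for spheroid growth; spheroids exposed to agents for one week after three days of growth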
Conditions: for viability, T/C: stronger effect = lower value
Excerpt: Multicellular complex tumor spheroid response to aryl hydrocarbon receptor antagonists in combination with a variety of drugs and investigational agents in selected tumor cell lines
The current study was undertaken to assess response to aryl hydrocarbon receptor antagonists in combination with standard-of-care drugs and investigational agents in solid tumor complex spheroid models. Complex spheroids include a stromal component modeled by human endothelial cells (HUVEC) and fibroblasts modeled by human mesenchymal stem cells (MSCs). The concentration ranges selected for each drug and investigational agent were based upon clinically achievable concentrations if the clinical Cmax of the agent was known.
Compounds. The drugs and investigational agents: BAY 2416964 (NSC825713), GNF351 (NSC835774), CH-223191 (NSC835775), CPI-455 (NSC825282), aza-TdCyd (NSC777586), decitabine (NSC127716), belinostat (NSC758774), entinostat (NSC756642), pevonedistat (NSC761192), tazemetostat (NSC777109), talazoparib (NSC765396), olaparib (NSC753686), selinexor (NSC780203), nedisertib (M3814, NSC802822), bortezomib (NSC756655), venetoclax (NSC766270), doxorubicin (NSC123127), elimusertib (BAY189344, NSC800525), ceralasertib (AZD6738, NSC777638), TAK-243 (NSC785004), alisertib (NSC759677), etoposide (NSC141540), topotecan (NSC609699), eribulin (NSC707389), gemcitabine (NSC613327), carboplatin (NSC241240), cisplatin (NSC119875), and SN-38 (NSC673596) were obtained from the National Cancer Institute (NCI) Developmental Therapeutics Program Chemical Repository (32). The FDA-approved anticancer drug set is available from the Developmental Therapeutics Program at https://dtp.cancer.gov/organization/dscb/obtaining/available plates.htm. […] The stock solutions were prepared in dimethyl sulfoxide (DMSO, Sigma-Aldrich, St. Louis, MO, cat. D2650), except for the platinum compounds which were prepared in saline (Quality Biological, Gaithersburg, MD, cat. 114-055-101), at 800-fold the tested concentration and stored at -70 degrees C prior to their use. All drugs and investigational agents were tested over a range starting from a high concentration at or near the clinical Cmax and decreasing in half-log increments. If the clinical Cmax for an agent had not been determined, the highest concentration tested was 10 microM (Table 1).
Cell Culture. All cells were maintained in an incubator at 37 degrees C and 5% CO2 with 95% humidity. The PDC lines were cultured according to standard operating procedures established by the NCI PDMR (https://pdmr.cancer.gov). Briefly, all PDCs were thawed and cultured in Matrigel-coated flasks prepared with a working solution of 1X Ham's F-12 nutrient mix, without supplementation (Invitrogen, Waltham, MA, cat. 11765054), 100 U/mL penicillin-streptomycin (Invitrogen, cat. 15140122), and 2.5% Matrigel (Corning Inc., Corning, NY, cat. 354248) for the first three passages. All PDCs were cultured in complete DMEM/F-12 media containing advanced DMEM/F-12 (Invitrogen, cat. 12634028), 4.9% defined fetal bovine serum, heat inactivated (HyClone Laboratories Inc., Logan, UT, cat. SH30070.03HI), 389 ng/mL hydrocortisone (Sigma-Aldrich, cat. H4001), 9.7 ng/mL human EGF recombinant protein (Invitrogen, cat. PHG0313), 23.4 microg/mL adenine (Sigma-Aldrich, cat. A2786), 97.3 U/mL penicillin-streptomycin (Invitrogen, cat. 15140122), 1.9 mM L-glutamine (Invitrogen, cat. 25030081), and 9.7 microM Y-27632 dihydrochloride (Tocris Bioscience, Bristol, United Kingdom, cat. 1254). The PDCs were cultured in complete DMEM/F12 media without 10 microM Y-27632 dihydrochloride for at least two passages prior to the screen. The established cell lines NCI-H1341 and […] were cultured in DMEM/F-12, HEPES (Invitrogen, cat. 11330032), 5% defined fetal bovine serum (HyClone Laboratories Inc., cat. SH30070.03), ITS premix universal culture supplement [insulin (5 microg/mL), transferrin (5 microg/mL), and selenious acid (5 ng/mL)] […]

SMILES	viability, T/C (compound 0.0316 µM)	viability, T/C (compound 0.1 µM)	viability, T/C (compound 0.316 µM)	viability, T/C (compound 1 µM)	viability, T/C (compound 3.16 µM)	viability, T/C (compound 10 µM)	IC50 (curve of compound)	further results
COc1cccc2c1C(=O)c1c(O)c3c(c(O)c1C2=O)CC(O)(C(=O)CO)CC3OC1CC(N)C(O)C(C)O1 (configuration not stated)	94.7% and 85.6% and 84.9%	76.8% and 79.4% and 75.8%	64.8% and 54.3% and 58.2%	22.9% and 18.6% and 23.3%	3.73% and 2.18% and 2.52%	3.36% and 2.24% and 3.77%	448 nM and 364 nM and 406 nM	–
Cc1ccccc1N=Nc1ccc(NC(=O)c2ccnn2C)c(C)c1	–	101% [middle of 20 runs]	–	102% [middle of 20 runs]	–	64.6% [middle of 20 runs]	–	IC50 (compound alone, run of 08/22/2022): > 10000 nM
Cc1cncc(-c2nc(NCCc3c[nH]c4ccccc34)c3ncn(C(C)C)c3n2)c1	–	107% [middle of 20 runs]	110% [middle of 20 runs]	–	–	6.41% [middle of 20 runs]	–	IC50 (compound alone, run of 08/16/2022): 4.32 µM [middle of 24 runs]
Cn1ncnc1C1c2n[nH]c(=O)c3cc(F)cc(c23)NC1c1ccc(F)cc1 (configuration not stated)	97.6% and 104% and 106%	102% and 96.8% and 95.4%	–	–	–	–	> 100 nM	viability, T/C (compound 0.000316 µM): 92.2% and 98.6% and 103%; viability, T/C (compound 0.001 µM): 104% and 105% and 101%; viability, T/C (compound 0.00316 µM): 113% and 105% and 109%; viability, T/C (compound 0.01 µM): 106% and 105% and 103%
NS(=O)(=O)OCC1CC(n2ccc3c(NC4CCc5ccccc54)ncnc32)CC1O (configuration not stated)	105% (2×) and 111%	91.6% and 81.1% and 96.8%	96.3% and 80.9% and 75.9%	61.7% and 50.2% and 53.7%	41% and 40.2% and 31.6%	36.6% and 31.7% and 31.8%	1850 nM and 1520 nM and 1090 nM	–
Nc1ccccc1NC(=O)c1ccc(CNC(=O)OCc2cccnc2)cc1	110% and 93.1% and 105%	94.4% and 93.7% and 104%	90.6% and 82% and 81.3%	65.3% and 61.6% and 56.3%	29.8% and 16.3% and 22.4%	1.27% and 0.71% and 1.79%	1640 nM and 1300 nM and 1190 nM	–
Nc1ccn(C2OC(CO)C(O)C2(F)F)c(=O)n1 (configuration not stated)	47.9% and 47.2% and 52.3%	58.5% and 48.9% and 52.8%	58.5% and 51% and 51.5%	52.4% and 51.2% and 50.9%	50.7% and 50.1% and 51.2%	56.5% and 43.3% and 49%	–	–
Nc1ncn(C2CC(O)C(CO)O2)c(=O)n1 (configuration not stated)	117% and 101% and 103%	102% and 105% and 98.2%	101% and 92.1% and 94.3%	89.7% and 90.5% and 96.5%	–	–	> 1000 nM	viability, T/C (compound 0.00316 µM): 107% and 102% and 97.1%; viability, T/C (compound 0.01 µM): 104% (2×) and 97.5%
Nc1ncn(C2CC(O)C(CO)S2)c(=O)n1 (configuration not stated)	–	–	–	–	–	–	> 300 nM	viability, T/C (compound 0.000949 µM): 112% and 105% and 101%; viability, T/C (compound 0.003 µM): 100% and 106% and 101%; viability, T/C (compound 0.00949 µM): 116% and 96% and 105%; viability, T/C (compound 0.03 µM): 102% and 97.7% and 101%; viability, T/C (compound 0.0949 µM): 102% and 97.4% and 104%; viability, T/C (compound 0.3 µM): 98.1% and 90.8% and 94.5%
O=C(C=Cc1cccc(S(=O)(=O)Nc2ccccc2)c1)NO	95.1% and 99% and 103%	109% and 96.7% and 106%	91.4% and 95.8% and 88.1%	73.5% and 71.2% and 72.4%	49.8% and 26% and 40.5%	1.74% and 0.77% and 1.35%	2910 nM and 1730 nM and 2230 nM	–
O=C(C=Cn1cnc(-c2cc(C(F)(F)F)cc(C(F)(F)F)c2)n1)NNc1cnccn1	–	–	–	–	–	–	346 nM and 176 nM and 244 nM	viability, T/C (compound 0.00949 µM): 91.2% and 92.5% and 96.9%; viability, T/C (compound 0.03 µM): 95.9% and 92.7% and 88.6%; viability, T/C (compound 0.0949 µM): 90.4% and 70.7% and 77.7%; viability, T/C (compound 0.3 µM): 54.4% and 32.3% and 45.1%; viability, T/C (compound 0.949 µM): 18.8% and 10% and 17.4%; viability, T/C (compound 3 µM): 15.7% and 10.8% and 15.9%
O=C(c1cc(Cc2n[nH]c(=O)c3ccccc23)ccc1F)N1CCN(C(=O)C2CC2)CC1	104% and 103% and 102%	108% and 102% and 106%	109% and 98.8% and 95%	104% and 103% and 88.4%	90.8% and 91.2% and 88.4%	82.5% and 75.1% and 82.1%	> 10000 nM	–
